# Paper PMC6287599, “2,6-Bis(2-Benzimidazolyl)Pyridine (BBP) Is a Potent and Selective Inhibitor of Small Conductance Calcium-Activated Potassium (SK) Channels” (Frontiers in Pharmacology, 2018)
# Target: T1, hBK (Homo sapiens, UniProt Q12791)
# T1 construct: expressed in transfected cells; host or cells: HEK293 (transient, co-transfected with eGFP)
# Experiment: Manual whole cell patch clamp, HEK293 transiently transfected with hBK
# Type: cell-based
# Settings: BBP 1 μM, manual patch clamp, 100 nM free intracellular calcium, n = 8
# Procedure: HEK293 cells were transiently co-transfected with the plasmid of interest (hBK, hSK1, hSK2, hSK3 WT, rSK3 H491N, or hIK) and eGFP using standard Lipofectamine™ 2000 (Thermo Fisher Scientific, Waltham, Massachussets, USA) transfection protocols. After transfection, cells were incubated overnight before the experiments.
# Manual patch clamp experiments were performed at room temperature in the whole cell configuration with a HEKA EPC9 amplifier and the Patchmaster software (HEKA Elektronik, Ludwigshafen, Germany). All currents were elicited every 2 s using an incremental 200 ms voltage-ramp protocol starting at −80 mV and finishing at +80 mV from a holding potential of 0 mV. […]
# To assess the effect of BBP on other calcium-activated potassium channels (hBK, hSK3 WT, rSK3 H491N, and hIK), each individual current was first normalized to its cell size using membrane's capacitance (pA/pF) before statistical analysis. […] Statistical significance between saline and the effect of both BBP and the corresponding reference compound was determined for each channel using one-way ANOVA analysis. […]
# After testing BBP on the three SK channel subtypes, we decided to explore whether other calcium-activated potassium channels were affected by the compound. […] Finally, a positive control was used to inhibit the remaining current and quantify the total effect of BBP. […]
# T1 sequence (Q12791 whole entry): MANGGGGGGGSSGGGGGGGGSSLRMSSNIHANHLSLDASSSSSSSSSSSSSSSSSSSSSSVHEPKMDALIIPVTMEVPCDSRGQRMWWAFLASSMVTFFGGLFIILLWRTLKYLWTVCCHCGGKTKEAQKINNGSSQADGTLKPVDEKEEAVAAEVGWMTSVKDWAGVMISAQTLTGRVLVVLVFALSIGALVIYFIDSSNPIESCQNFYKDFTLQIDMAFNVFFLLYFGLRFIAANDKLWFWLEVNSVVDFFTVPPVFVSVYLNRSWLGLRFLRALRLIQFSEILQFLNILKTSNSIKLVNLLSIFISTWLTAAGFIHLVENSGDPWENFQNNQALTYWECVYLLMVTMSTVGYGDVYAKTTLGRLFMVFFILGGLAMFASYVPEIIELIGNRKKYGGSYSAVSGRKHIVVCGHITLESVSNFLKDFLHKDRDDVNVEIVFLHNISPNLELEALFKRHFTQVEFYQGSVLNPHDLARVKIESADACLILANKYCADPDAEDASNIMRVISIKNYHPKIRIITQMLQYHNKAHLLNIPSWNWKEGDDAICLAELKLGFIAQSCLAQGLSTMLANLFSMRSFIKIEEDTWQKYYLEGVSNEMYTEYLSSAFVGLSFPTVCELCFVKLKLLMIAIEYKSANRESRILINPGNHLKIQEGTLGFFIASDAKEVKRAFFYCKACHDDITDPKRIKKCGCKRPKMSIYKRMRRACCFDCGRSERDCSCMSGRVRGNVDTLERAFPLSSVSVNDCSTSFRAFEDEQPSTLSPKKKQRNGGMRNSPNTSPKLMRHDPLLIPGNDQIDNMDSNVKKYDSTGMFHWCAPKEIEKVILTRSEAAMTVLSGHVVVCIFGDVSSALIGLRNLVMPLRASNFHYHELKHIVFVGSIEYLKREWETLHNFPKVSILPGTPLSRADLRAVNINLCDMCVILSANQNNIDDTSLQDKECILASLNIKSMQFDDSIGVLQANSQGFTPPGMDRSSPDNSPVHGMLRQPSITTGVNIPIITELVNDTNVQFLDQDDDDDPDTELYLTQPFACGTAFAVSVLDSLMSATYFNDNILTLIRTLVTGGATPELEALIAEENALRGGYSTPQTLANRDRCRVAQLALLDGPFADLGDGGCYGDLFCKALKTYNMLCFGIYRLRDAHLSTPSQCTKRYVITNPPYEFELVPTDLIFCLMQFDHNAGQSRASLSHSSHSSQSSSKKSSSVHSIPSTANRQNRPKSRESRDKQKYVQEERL
compound,measurement,value
"c1cc(-c2nc3ccccc3[nH]2)nc(-c2nc3ccccc3[nH]2)c1 [BBP, 2,6-Bis(2-benzimidazolyl)pyridine]",Reduction of hBK current,19 ± 6%
